Measurements taken from US4107165A, “Tris[tetrahydroisoquinoline] compounds” (Endo Laboratories, priority 1976, dated 1978).

Experiments:
[1] = test system: rats; experiment: toxicity, intraperitoneal administration to rats; assay type: in vivo; details: at 0.01 mg./kg. and at 10 mg./kg.
From the text: An outstanding feature of the compounds of this invention is their relative lack of toxicity. Although they are active at very low dose levels, it is possible to exceed minimum effective levels by wide margins without encountering serious adverse reactions. This permits the compounds to be used within wide limits without concern about undesirable side effects, as are so frequently encountered upon inadvertent overdosage of other substances of great potency.

[2] = test system: whole blood clot; experiment: whole blood clot lysis method (fibrinolytic activity), blood from rats given compound intraperitoneally; assay type: in vivo; details: Rattus norvegicus, ip, 4 h, intraperitoneal, blood diluted 1:10, clotted with thrombin, 37° C, four hours, read-out: ED50 (dose which causes lysis of 50% of the clot)
Method: Certain representative compounds within the scope of the present invention have been tested for fibrinolytic activity by the whole blood clot lysis method, as modified from the procedure of Billimoria et al.^1 In this method, blood from rats given a fibrinolytic compound intraperitoneally is taken and diluted 1:10. A standard amount is clotted with thrombin, incubated at 37° C for four hours, and the amount of clot that has lysed is determined. […] These ED50 values for the various compounds tested are set forth in the following table, each of the compounds being identified by name and by the number of the ensuing example in which its synthesis is described. […] ^1 Billimoria, […]., James, […]., Lancet II, 471 (1959)

[3] = test system: ADP-induced platelet aggregation; experiment: inhibition of ADP-induced platelet aggregation in platelet rich plasma; assay type: cell-based; details: 5 min; human platelet rich plasma, 37° C, five minutes incubation prior to ADP; read-out: ED50 (amount which reduces platelet aggregation by 50%)
Method: Another selection of representative compounds within the scope of the present invention, including some listed in the previous table, have been tested for their ability to inhibit platelet aggregation. Citrated whole blood from human volunteers, who had not taken any medicine for the previous week, was centrifuged to obtain platelet rich plasma. On addition of ADP (adenosine diphosphate) to this platelet rich plasma, incubated at 37° C with constant stirring, in an aggregometer, optical density changes can be observed which are caused by platelet aggregation. Thus, the extent of ADP-induced platelet aggregation is determined for each sample of blood used. Compounds to be tested were incubated for five minutes prior to the addition of ADP. The ED50 of a compound is that amount, in γ/ml, which reduces platelet aggregation by 50% under the above conditions.

COc1cc2c(cc1OC)C(CCCCC(CCC1NCCc3cc(OC)c(OC)cc31)CCC1NCCc3cc(OC)c(OC)cc31)NCC2.Cl.Cl.Cl (stereo not drawn) [Example 1.1, 1,1'-{3-[2-(1,2,3,4-tetrahydro-6,7-dimethoxy-1-isoquinolinyl)ethyl]heptamethylene}bis[1,2,3,4-tetrahydro-6,7-dimethoxyisoquinoline] trihydrochloride]
toxicity [1]: without producing toxicity | ED50 [2]: 0.02 mg/kg | IC50 [3]: 6 µg/mL
